Entries after “also recorded” stand apart in the source; their conditions may differ.
What was measured:
[1] = system: MCAO cerebral ischemia-reperfusion (IR) mice; assay: MCAO cerebral ischemia-reperfusion (IR) mouse model, infarct area by TTC staining; assay type: in vivo, C57BL/6J mice; conditions: for Infarct area percentage (%) X ± SD: IR mice, po, QD, from 4 days before surgery, 1 h ischemia, 24 h reperfusion, IR model group 48.42 ± 24.21; for Infarcted area compared with the IR group mice (in words): oral administration
Procedure: A surgical incision was made in the neck to expose a left common carotid artery (CCA), an internal carotid artery (ICA), and an external carotid artery (ECA). A pre-made filament was inserted through the external carotid artery into the internal carotid artery and advanced to a middle cerebral artery (MCA), causing ischemia in a left brain region. After 60 minutes of occlusion, the filament was removed to achieve reperfusion in the left brain region. FIG. 5 is a schematic diagram illustrating the MCAO cerebral ischemia model using the intraluminal filament approach.
1. Animal anesthesia and neck preparation: the mice were anesthetized by inhalation of 2% isoflurane gas. After muscle relaxation, the four limbs of the mice were fixed to an operating table with 3M medical tape. Depilatory cream was used to remove the hair on a side of the neck, and erythromycin eye ointment was applied to the eyeballs of the mice to prevent eye dryness.
2. Surgical incision: the neck skin was disinfected sequentially with iodophor and 75% alcohol cotton balls. A 3 cm incision was made along the midline of the neck. Under a stereomicroscope, the subcutaneous tissue and fat were bluntly dissected, the superficial fascia and platysma were incised to expose the deep fascia of the neck and the anterior tracheal muscle. After the anterior tracheal muscle was exposed, the deep cervical fascia was torn along an anterior edge of the left sternocleidomastoideole, exposing the sternocleidomastoideole, which was then pulled posteriorly. The dissection continued downward along the sternocleidomastoideole until the deeper carotid sheath was exposed.
3. Vessel exposure and isolation: while avoiding compression of the mouse trachea, the carotid sheath was incised, and the common carotid artery (CCA) was isolated, taking care not to damage the vagus nerve running alongside in the sheath, as simulation or injury to the nerve may cause sudden respiratory arrest in the animal. The dissection continued upward along the common carotid artery, and the external carotid artery was identified at an upper edge of the thyroid cartilage. […] A proximal end of the external carotid artery was gently lifted to expose the internal carotid artery located laterally and inferiorly.
4. […] The internal carotid artery was temporarily clamped with a microvascular clip. […] The branch vessels were coagulated using an electrocautery pen. A distal end of the external carotid artery was permanently ligated with a 6-0 silk ligature, while the proximal end was looped for later use.
5. Filament insertion: a small incision was made at a ligated distal end of the external carotid artery, and the filament was threaded through the incision and tied with the pre-prepared loop ligature. The incision was cut off, and the filament was adjusted and threaded into the internal carotid artery. […] The ligature was tightened to fix the filament and timing started immediately.
6. After suturing the skin, anesthesia was discontinued. Following 60 minutes of ischemia, the filament was removed to complete cerebral ischemia-reperfusion.
7. Close the incision: the incision was closed using interrupted 4-0 sutures, disinfected with iodophor, and 3 mL of saline was injected intraperitoneally for rehydration. Postoperative analgesia jelly was provided, and the mice were kept warm and monitored continuously until they recover from anesthesia.
C57BL/6J male mice, aged 8 weeks, were acclimatized for 1 week and then randomly assigned to 7 groups. Except for eight mice in the blank control group (i.e., the sham-operated control group), the remaining mice underwent MCAO surgery to induce cerebral ischemia and were randomly divided into 6 groups, including an IR model group, a TAK875 group (12 mice per group), and four LY2922470 groups with different concentrations (8 mice per group). […]

[2] = system: MCAO cerebral ischemia-reperfusion (IR) mice; conditions: male, C57BL/6J, mouse, in vivo, 5 days

SMILES	Infarct area percentage (%) X ± SD ([1]; LY2922470 10 mg/kg)	Infarct area percentage (%) X ± SD ([1]; LY2922470 20 mg/kg) [%]	Infarct area percentage (%) X ± SD ([1]; LY2922470 40 mg/kg)	Infarct area percentage (%) X ± SD ([1]; LY2922470 80 mg/kg) [%]	Infarcted area in the brain compared with the IR group mice (in words) ([1]; LY2922470 10 mg/kg)	Infarcted area in the brain compared with the IR group mice (in words) ([1]; LY2922470 40 mg/kg)	Infarcted area compared with the IR group mice (in words) ([1]; different doses of LY2922470 (10-80 mg/kg))	Infarct area percentage (%) X ± SD ([1]; TAK875 30 mg/kg) [%]	Infarcted area compared with the IR group mice (in words) ([1]; TAK875 30 mg/kg)	Time of death after reperfusion [2] [h]	Deaths after MCAO cerebral ischemia surgery ([2]; po, 30 mg/kg)
CC#C[C@@H](CC(=O)O)c1ccc(OCc2ccc(CN3CCCc4cccc(OC)c43)s2)cc1 [LY2922470]	26.77 ± 14.54 (*) %	30.55 ± 16.52	20.4 ± 6.88 (**) %	31.03 ± 17.8	significantly reduced	significantly reduced	the infarcted area in the mice was reduced; also recorded: significantly decreased	–	–	–	–
Cc1cc(OCCCS(C)(=O)=O)cc(C)c1-c1cccc(COc2ccc3c(c2)OC[C@H]3CC(=O)O)c1 [TAK875]	–	–	–	–	–	–	–	48.9 ± 25.13	no significant decrease in the size of the infarcted area	18	one from the TAK875 group died

— patent US20250195499A1, “METHODS FOR PREVENTING OR TREATING CEREBROVASCULAR DISEASES OR TISSUE ISCHEMIA-REPERFUSION INJURY” (CO., LTD. OF JEAMOON TECHNOLOGY, priority 2022, published 2025)
